Our source for the Ki values is BindingDB's records for doi:10.1021/jm00067a003 (Upjohn Laboratories, 1993).

SMILES strings stand for the structures.

The test has as its target 5-hydroxytryptamine receptor 1A (Bos taurus). Description: Binding affinity at 5-hydroxytryptamine 1A receptor in bovine hippocampal preparation using [3H]8-OH-DPAT.

Consider `CCCN(CC1CC1)[C@H]1CCc2ccc3[nH]c(C(N)=O)cc3c2C1`, for which the affinity, expressed as Ki, was 5.3 nM. In other words, the single-digit nanomolar range.
